Here are results for three molecules from ChEMBL document CHEMBL4406853 (Eur J Med Chem, 2019).

Experiment [1] has as its target T1, Kappa-type opioid receptor (Homo sapiens, UniProt P41145). Put plainly: Partial agonist activity at kappa opioid receptor (unknown origin) expressed in CHO cells by [35S]-GTPgammaS binding assay. It is filed as functional, cell-based.
For experiment [2], the target named is T1, Kappa-type opioid receptor. Put plainly: Agonist activity at kappa opioid receptor (unknown origin) assessed as reduction in beta arrestin recruitment. The class given is functional.
Experiment [3] concerns the target T1, Kappa-type opioid receptor. Put plainly: Agonist activity at kappa opioid receptor (unknown origin) assessed as reduction in beta arrestin recruitment relative to control. It is filed as functional.
Experiment [4] addresses T1, Kappa-type opioid receptor. Put plainly: Inhibition of kappa opioid receptor (unknown origin) expressed in CHO cells by [35S]-GTPgammaS binding assay. It is filed as functional, cell-based.
Experiment [5] concerns the target T1, Kappa-type opioid receptor. Nature of the experiment: Partial agonist activity at kappa opioid receptor (unknown origin) expressed in CHO cells by [35S]-GTPgammaS binding assay relative to control. It is filed as functional, cell-based.
In the next experiment the target is Mu-type opioid receptor (Homo sapiens, UniProt P35372). Nature of the experiment: Partial agonist activity at mu opioid receptor (unknown origin) expressed in CHO cells by [35S]-GTPgammaS binding assay. The class given is functional, cell-based.
A further experiment is filed under the species Homo sapiens. Nature of the experiment: Selectivity ratio of Ki for mu opioid receptor (unknown origin) expressed in CHO cells to Ki for delta opioid receptor (unknown origin) expressed in CHO cells. The class given is cell-based.
In experiment [6] the target is Mitogen-activated protein kinase 1 (Homo sapiens, UniProt P28482). Put plainly: Inhibition of ERK2 phosphorylation (unknown origin).
A further experiment has as its target MAP kinase p38 (Homo sapiens, UniProt O15264+Q15759+Q16539+P53778). Nature of the experiment: Inhibition of p38 phosphorylation (unknown origin). The class given is protein assay.
Experiment [7] concerns the target Mitogen-activated protein kinase 3 (Homo sapiens, UniProt P27361). Put plainly: Inhibition of ERK1 phosphorylation (unknown origin).
Experiment [8] addresses T1, Kappa-type opioid receptor. Put plainly: Inhibition of kappa opioid receptor (unknown origin) assessed as effect on ERK1 phosphorylation relative to control.
Experiment [9] deals with T1, Kappa-type opioid receptor. Put plainly: Inhibition of kappa opioid receptor (unknown origin) by [35S]-GTPgammaS binding assay. The class given is functional.
Experiment [10] concerns the target T1, Kappa-type opioid receptor. Nature of the experiment: Inhibition of kappa opioid receptor (unknown origin) assessed as effect on ERK2 phosphorylation.
Experiment [11] has as its target T1, Kappa-type opioid receptor. Put plainly: Inhibition of kappa opioid receptor (unknown origin) assessed as increase in beta arrestin 2 recruitment relative to control.
In experiment [12] the target is T1, Kappa-type opioid receptor. Put plainly: Inhibition of kappa opioid receptor (unknown origin) assessed as increase in beta arrestin 2 recruitment.
Experiment [13] deals with T1, Kappa-type opioid receptor. Nature of the experiment: Inhibition of kappa opioid receptor (unknown origin) assessed as effect on ERK1 phosphorylation.
In experiment [14] the target is T1, Kappa-type opioid receptor. Nature of the experiment: Inhibition of kappa opioid receptor (unknown origin) assessed as effect on ERK2 phosphorylation relative to control.

SMILES strings stand for the structures.

T1 sequence (P41145 whole entry): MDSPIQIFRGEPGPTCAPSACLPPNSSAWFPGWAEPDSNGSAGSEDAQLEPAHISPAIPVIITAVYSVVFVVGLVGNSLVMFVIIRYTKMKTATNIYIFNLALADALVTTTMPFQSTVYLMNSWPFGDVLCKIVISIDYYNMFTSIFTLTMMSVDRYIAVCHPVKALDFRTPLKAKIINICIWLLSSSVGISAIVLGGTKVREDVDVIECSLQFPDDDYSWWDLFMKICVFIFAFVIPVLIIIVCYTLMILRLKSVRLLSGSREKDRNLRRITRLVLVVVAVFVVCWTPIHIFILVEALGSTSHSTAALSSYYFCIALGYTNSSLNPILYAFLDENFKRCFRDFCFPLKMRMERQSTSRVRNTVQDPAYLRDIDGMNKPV
Sequence of Mu-type opioid receptor (P35372 whole entry): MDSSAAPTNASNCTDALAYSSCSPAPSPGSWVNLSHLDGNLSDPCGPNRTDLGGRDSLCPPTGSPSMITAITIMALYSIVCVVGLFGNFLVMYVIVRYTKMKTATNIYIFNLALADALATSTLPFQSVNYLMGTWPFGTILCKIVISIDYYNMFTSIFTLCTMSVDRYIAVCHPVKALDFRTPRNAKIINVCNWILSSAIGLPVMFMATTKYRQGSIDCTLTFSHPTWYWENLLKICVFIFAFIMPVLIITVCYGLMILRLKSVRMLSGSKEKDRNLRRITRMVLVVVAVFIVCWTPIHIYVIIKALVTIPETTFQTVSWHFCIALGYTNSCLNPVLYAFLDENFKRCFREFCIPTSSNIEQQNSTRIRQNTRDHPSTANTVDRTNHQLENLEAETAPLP
Sequence of Mitogen-activated protein kinase 1 (P28482 whole entry): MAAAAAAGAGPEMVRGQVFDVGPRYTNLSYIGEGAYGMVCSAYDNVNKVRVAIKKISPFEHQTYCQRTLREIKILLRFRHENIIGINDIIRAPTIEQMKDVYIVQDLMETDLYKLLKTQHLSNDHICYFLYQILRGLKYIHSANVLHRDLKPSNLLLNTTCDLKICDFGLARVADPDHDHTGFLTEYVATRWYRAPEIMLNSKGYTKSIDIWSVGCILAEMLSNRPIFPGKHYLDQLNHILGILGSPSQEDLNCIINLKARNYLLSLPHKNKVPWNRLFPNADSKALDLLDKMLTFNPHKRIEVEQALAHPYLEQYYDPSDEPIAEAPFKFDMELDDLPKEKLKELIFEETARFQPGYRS
Sequence of Mitogen-activated protein kinase 3 (P27361 whole entry): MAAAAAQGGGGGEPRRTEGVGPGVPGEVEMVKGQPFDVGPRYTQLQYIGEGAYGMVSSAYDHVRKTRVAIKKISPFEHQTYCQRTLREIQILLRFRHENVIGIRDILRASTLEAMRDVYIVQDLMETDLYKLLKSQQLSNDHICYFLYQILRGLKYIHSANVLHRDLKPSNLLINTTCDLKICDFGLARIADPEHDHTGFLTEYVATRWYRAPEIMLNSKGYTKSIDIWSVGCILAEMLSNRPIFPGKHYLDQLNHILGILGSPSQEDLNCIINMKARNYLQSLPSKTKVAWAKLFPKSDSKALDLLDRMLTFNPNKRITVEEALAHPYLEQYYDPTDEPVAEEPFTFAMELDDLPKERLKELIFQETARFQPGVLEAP

`CCC1CC2CC3c4[nH]c5ccc(O)cc5c4CCN(C2)C13` (configuration not stated): the results for the EC50 (in [1]; in experiment [2]; on Mu-type opioid receptor) were 8750 nM, 110 nM and 16000 nM, respectively. In addition, the Emax in experiment [3] amounted to 13%; in [5], 72%. Also, the Ki in [4] turned out to be 720 nM. In addition, the Ratio Ki in the experiment filed under Homo sapiens came to 2.

As for `CN(C(=O)/C=C/c1ccoc1)[C@@H]1CC[C@@]2(O)[C@H]3Cc4ccc(O)c5c4[C@@]2(CCN3CC2CC2)[C@H]1O5` [NALFURAFINE], the EC50 in experiment [6] is 0.55 nM; on MAP kinase p38 it was 5.2 nM; in experiment [7], 0.55 nM.

With `Ic1ccc(CSc2nnc(-c3ccccn3)n2Cc2ccccn2)cc1`, the Emax was found to be 109% in experiment [8], 101% in experiment [11] and 109% in [14]. The EC50 was 75.5 nM in [9], 107 nM in experiment [10], 10100 nM in experiment [12] and 107 nM in experiment [13].
